Measurements reported in patent US4296126A, “3-Aryloxy-3-aryl-propaneamines and their method of use” (Roussel Uclaf, priority 1978, dated 1981).
Structures can show the parent of a compound that is named as a salt.

Assays:
[1] = Acute toxicity, LD50 in mice after intraperitoneal administration; conditions: mouse, in vivo, ip, determined 48 hours after administration
Experimental: The LD50 or lethal dose at which 50% of the animals died after intraperitoneal administration of the test compound to mice was determined 48 hours after the administration.

dogs = assay: Anorexigenic activity in dogs (method of Adams et al); format: in vivo, dog; conditions: Canis lupus familiaris, po, compound given in lieu of first ball, balls offered every 10 minutes for 7 hours, activity grew with increasing doses, read-out: dose at which anorexigenic activity was shown (refusal of food balls)
Experimental: The anorexigenic activity was studied in dogs using the method of Adams et al [J. Pharm. Sci., Vol. 53, (1964), p. 1405]. On the day of the test with the compound presumed to be anorexigenic, the individual daily ration of the animal was divided into about equal balls (10 to 20 g) which were offered to the dog every 10 minutes for 7 hours. Normally, the animal will regularly accept the successive balls when they are presented.

## CN(C)CCC(Oc1ccc([N+](=O)[O-])cc1)c1ccccc1 (centres unmarked) [Example 1, N,N-dimethyl-γ-(4-nitrophenoxy)-benzene-propanamine oxalate]
[1]
  LD50 at 48 h: ~75 mg/kg
dogs
  minimal effective dose: 3 mg/kg
